# Experimental data: PubChem BioAssay (NCI)
#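 1) Cells in 96-well plates. 2) Compound, 48 h, 5 concentrations. 3) Linear interpolation between surrounding doses. 4) Unreached endpoint = highest concentration. GI50: concentration for 50% inhibition of growth. The concentration for full growth arrest is given as TGI.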
# Columns and labels:
# Assay in all cases: NCI-60 cell line screen, 48 h
# [1] = tested on: 786-0 renal
# [2] = tested on: A498 renal
# [3] = tested on: A549 NSCLC
# [4] = tested on: ACHN renal
# [5] = tested on: CAKI-1 renal
# [6] = tested on: CCRF-CEM leukemia
# [7] = tested on: COLO 205 colon
# [8] = tested on: DLD-1 colon
# [9] = tested on: DMS 273 small cell lung
# [10] = tested on: DU-145 prostate
# [11] = tested on: EKVX NSCLC
# [12] = tested on: HCC-2998 colon
# [13] = tested on: HCT-116 colon
# [14] = tested on: HCT-15 colon
# [15] = tested on: HL-60(TB) leukemia
# [16] = tested on: HOP-18 NSCLC
# [17] = tested on: HOP-92 NSCLC
# [18] = tested on: HS 578T breast
# [19] = tested on: HT29 colon
# [20] = tested on: IGROV1 ovarian
# [21] = tested on: K-562 leukemia
# [22] = tested on: KM12 colon
# [23] = tested on: KM20L2 colon
# [24] = tested on: LOX IMVI melanoma
# [25] = tested on: LXFL 529 NSCLC
# [26] = tested on: M14 melanoma
# [27] = tested on: M19-MEL melanoma
# [28] = tested on: MALME-3M melanoma
# [29] = tested on: MCF7 breast
# [30] = tested on: MDA-MB-231 breast
# [31] = tested on: MDA-MB-435
# [32] = tested on: MDA-N
# [33] = tested on: NCI-H226 lung
# [34] = tested on: NCI-H23 lung
# [35] = tested on: NCI-H460 lung
# [36] = tested on: NCI-H522 lung
# [37] = tested on: NCI/ADR-RES ovarian
# [38] = tested on: OVCAR-3 ovarian
# [39] = tested on: OVCAR-4 ovarian
# [40] = tested on: OVCAR-5 ovarian
# [41] = tested on: OVCAR-8 ovarian
# [42] = tested on: PC-3 prostate
# [43] = tested on: RPMI-8226 leukemia
# [44] = tested on: RXF 393 renal
# [45] = tested on: SF-268 CNS
# [46] = tested on: SF-295 CNS
# [47] = tested on: SF-539 CNS
# [48] = tested on: SK-MEL-2 melanoma
# [49] = tested on: SK-MEL-28 melanoma
# [50] = tested on: SK-MEL-5 melanoma
# [51] = tested on: SK-OV-3 ovarian
# [52] = tested on: SN12C renal
# [53] = tested on: SNB-19 CNS
# [54] = tested on: SNB-75 CNS
# [55] = tested on: SNB-78 CNS
# [56] = tested on: SR leukemia
# [57] = tested on: SW-620 colon
# [58] = tested on: T-47D breast
# [59] = tested on: TK-10 renal
# [60] = tested on: U251 CNS
# [61] = tested on: UACC-257 melanoma
# [62] = tested on: UACC-62 melanoma
# [63] = tested on: UO-31 renal
# [64] = tested on: XF 498 CNS
# [65] = tested on: DMS 114 small cell lung
# [66] = tested on: HOP-62 NSCLC
structure (smiles),measurement,setting,value
O=C1C=C[C@@]23C[C@@H](Nc4c(O)c5c6c(c42)=NCCC=6C=N5)SC3=C1,GI50,[1],4.34 µM
same,TGI,[1],14.6 µM
same,GI50,[2],9.04 µM
same,TGI,[2],25.3 µM
same,GI50,[3],8.62 µM
same,TGI,[3],24.4 µM
same,GI50,[4],3.35 µM
same,TGI,[4],9.16 µM
same,TGI,[5],32.1 µM
same,TGI,[6],> 27 µM
same,TGI,[7],2.92 µM
same,GI50,[8],1.74 µM
same,TGI,[8],3.22 µM
same,GI50,[9],2.42 µM
same,TGI,[9],8.37 µM
same,GI50,[10],17.1 µM
same,TGI,[10],30.9 µM
same,GI50,[11],7.74 µM
same,TGI,[11],20.2 µM
same,GI50,[12],4.39 µM
same,TGI,[12],13.6 µM
same,TGI,[13],4.03 µM
same,GI50,[14],2.85 µM
same,TGI,[14],7.94 µM
same,TGI,[15],5.61 µM
same,GI50,[16],14.8 µM
same,TGI,[16],28.1 µM
same,GI50,[17],3.18 µM
same,TGI,[17],10.2 µM
same,GI50,[18],3.75 µM
same,TGI,[18],19.8 µM
same,TGI,[19],7.39 µM
same,GI50,[20],2.01 µM
same,TGI,[20],4.35 µM
same,GI50,[21],2.66 µM
same,TGI,[21],> 21.9 µM
same,TGI,[22],18.5 µM
same,TGI,[23],10.7 µM
same,GI50,[24],1.82 µM
same,TGI,[24],3.78 µM
same,TGI,[25],3.24 µM
same,GI50,[26],2.16 µM
same,TGI,[26],5.05 µM
same,GI50,[27],1.71 µM
same,TGI,[27],3.24 µM
same,TGI,[28],2.52 µM
same,GI50,[29],2 µM
same,TGI,[29],4.04 µM
same,GI50,[30],1.62 µM
same,TGI,[30],3.35 µM
same,TGI,[31],2.98 µM
same,TGI,[32],3.1 µM
same,TGI,[33],28.7 µM
same,GI50,[34],2.52 µM
same,TGI,[34],7.01 µM
same,GI50,[35],7.2 µM
same,TGI,[35],19.8 µM
same,TGI,[36],3.13 µM
same,GI50,[37],2.88 µM
same,TGI,[37],10.1 µM
same,GI50,[38],1.5 µM
same,TGI,[38],3.76 µM
same,GI50,[39],1.83 µM
same,TGI,[39],3.27 µM
same,GI50,[40],5.13 µM
same,TGI,[40],9.5 µM
same,GI50,[41],1.87 µM
same,TGI,[41],3.66 µM
same,GI50,[42],2.42 µM
same,TGI,[42],7.61 µM
same,GI50,[43],3.13 µM
same,TGI,[43],> 34.6 µM
same,GI50,[44],2.51 µM
same,TGI,[44],8.81 µM
same,GI50,[45],3.04 µM
same,TGI,[45],10.1 µM
same,GI50,[46],6.68 µM
same,TGI,[46],19.3 µM
same,GI50,[47],3.08 µM
same,TGI,[47],9.58 µM
same,GI50,[48],1.94 µM
same,TGI,[48],4.03 µM
same,GI50,[49],7.48 µM
same,TGI,[49],20.1 µM
same,GI50,[50],1.93 µM
same,TGI,[50],3.38 µM
same,TGI,[51],32.8 µM
same,GI50,[52],2.36 µM
same,TGI,[52],5.16 µM
same,TGI,[53],30.6 µM
same,GI50,[54],12 µM
same,TGI,[54],25.3 µM
same,GI50,[55],3.24 µM
same,TGI,[55],12.3 µM
same,GI50,[56],2.26 µM
same,TGI,[56],6.14 µM
same,GI50,[57],1.68 µM
same,TGI,[57],3.31 µM
same,GI50,[58],2.96 µM
same,TGI,[58],7.47 µM
same,TGI,[59],27.7 µM
same,GI50,[60],2.72 µM
same,TGI,[60],7.92 µM
same,GI50,[61],1.67 µM
same,TGI,[61],3.04 µM
same,GI50,[62],1.64 µM
same,TGI,[62],3.31 µM
same,TGI,[63],22.8 µM
same,GI50,[64],2.34 µM
same,TGI,[64],4.95 µM
Nc1ccc(C(=O)NN2C(=O)C(Cl)C2c2cc(Br)ccc2O)cc1 (stereo not drawn),TGI,[1],> 100 µM
same,TGI,[2],> 100 µM
same,TGI,[3],> 100 µM
same,TGI,[4],> 100 µM
same,TGI,[5],> 100 µM
same,TGI,[6],> 100 µM
same,TGI,[7],> 100 µM
same,TGI,[8],> 100 µM
same,TGI,[65],> 100 µM
same,TGI,[9],> 100 µM
same,TGI,[11],> 100 µM
same,TGI,[12],> 100 µM
same,TGI,[13],32.5 µM
same,TGI,[14],> 100 µM
same,TGI,[15],78.8 µM
same,TGI,[66],> 100 µM
same,TGI,[17],> 100 µM
same,TGI,[19],> 100 µM
same,TGI,[20],94.3 µM
same,TGI,[21],> 100 µM
same,TGI,[22],> 100 µM
same,TGI,[23],> 100 µM
same,TGI,[24],> 100 µM
same,TGI,[25],> 100 µM
same,TGI,[26],> 100 µM
same,TGI,[27],> 100 µM
same,TGI,[28],> 100 µM
same,TGI,[33],> 100 µM
same,TGI,[34],> 100 µM
same,TGI,[35],> 100 µM
same,TGI,[36],38.5 µM
same,TGI,[38],> 100 µM
same,TGI,[39],> 100 µM
same,TGI,[40],> 100 µM
same,TGI,[41],> 100 µM
same,TGI,[43],> 100 µM
same,TGI,[45],> 100 µM
same,TGI,[46],> 100 µM
same,TGI,[47],> 100 µM
same,TGI,[49],> 100 µM
same,TGI,[50],> 100 µM
same,TGI,[51],> 100 µM
same,TGI,[52],> 100 µM
same,TGI,[53],> 100 µM
same,TGI,[54],> 100 µM
same,TGI,[55],> 100 µM
same,TGI,[57],> 100 µM
same,TGI,[59],> 100 µM
same,TGI,[60],90.3 µM
same,TGI,[61],> 100 µM
same,TGI,[62],> 100 µM
same,TGI,[63],> 100 µM
same,TGI,[64],> 100 µM
